Test results from patent publication US7595063B2, “Compressed tablet formulation” (Merck & Co., Inc., priority 1998, dated 2009).

Assay: crystallinity of efavirenz upon compression
Format: physicochemical
Conditions: compression into tablet

crystallinity upon compression: loses crystallinity upon compression
Compound: O=C1Nc2ccc(Cl)cc2[C@@](C#CC2CC2)(C(F)(F)F)O1 [efavirenz, (−)-6-chloro-4-cyclopropylethynyl-4-trifluoromethyl-1,4-dihydro-2H-3,1-benzoxazin-2-one]
